# Calls of active or inactive are those of the source. The calls are words filed in the database; no cut-off is given here.
# Legend:
# A549 [1] = assay: Antimigratory activity against TGFbeta-stimulated human A549 cells assessed as inhibition of cell migration at 10 uM measured for 1 day by cell scratch assay; format: functional, cell-based
# A549 [2] = assay: Downregulation of E-cadherin mRNA expression in human A549 cells at 20 uM measured for 1 day bt RT-qPCR analysis; format: functional, cell-based
# [3] = target: T1, Heterogeneous nuclear ribonucleoprotein M (Homo sapiens) (UniProt P52272); assay: Competitive inhibition of hnRNP M to in human A549 cells at 50 uM by immunoblotting analysis; format: cell-based
# T1 sequence (whole entry): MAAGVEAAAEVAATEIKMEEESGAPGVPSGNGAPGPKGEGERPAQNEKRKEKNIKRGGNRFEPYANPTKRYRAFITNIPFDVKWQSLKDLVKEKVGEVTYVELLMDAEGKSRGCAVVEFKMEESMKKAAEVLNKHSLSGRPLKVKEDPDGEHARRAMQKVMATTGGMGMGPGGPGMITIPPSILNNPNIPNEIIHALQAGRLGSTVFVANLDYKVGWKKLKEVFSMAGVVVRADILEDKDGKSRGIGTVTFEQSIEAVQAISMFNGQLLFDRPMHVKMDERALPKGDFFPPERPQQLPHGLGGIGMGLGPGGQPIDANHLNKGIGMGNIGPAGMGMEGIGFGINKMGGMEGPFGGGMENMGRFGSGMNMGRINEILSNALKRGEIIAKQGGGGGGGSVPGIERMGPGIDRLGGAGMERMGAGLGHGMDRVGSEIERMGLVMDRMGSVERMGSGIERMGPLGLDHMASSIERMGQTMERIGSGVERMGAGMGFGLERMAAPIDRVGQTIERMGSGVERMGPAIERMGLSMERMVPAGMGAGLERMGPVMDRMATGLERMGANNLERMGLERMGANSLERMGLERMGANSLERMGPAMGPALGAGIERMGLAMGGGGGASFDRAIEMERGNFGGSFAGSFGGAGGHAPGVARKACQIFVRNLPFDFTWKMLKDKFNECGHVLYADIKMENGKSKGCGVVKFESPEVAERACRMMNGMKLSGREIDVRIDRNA
# A549 [4] = assay: Cytotoxicity against human A549 cells assessed as reduction in cell growth at 20 uM measured for 2 days by MTT assay; format: functional, cell-based; conditions: time 2.0 day
# A549 [5] = assay: Antimigratory activity against TGFbeta-stimulated human A549 cells assessed as inhibition of cell migration at 20 uM measured for 1 day by cell scratch assay; format: functional, cell-based
# A549 [6] = assay: Downregulation of CD44 mRNA expression in human A549 cells at 20 uM measured for 1 day bt RT-qPCR analysis; format: functional, cell-based
# A549 [7] = assay: Downregulation of Vimentin mRNA expression in human A549 cells at 20 uM measured for 1 day bt RT-qPCR analysis; format: functional, cell-based
# A549 [8] = assay: Antimigratory activity against TGFbeta-stimulated human A549 cells assessed as inhibition of cell migration at 1 uM measured for 1 day by cell scratch assay; format: functional, cell-based
# A549 [9] = assay: Antimigratory activity against TGFbeta-stimulated human A549 cells assessed as inhibition of cell migration measured for 1 day by cell scratch assay; format: functional, cell-based
# A549 [10] = assay: Downregulation of Zeb 1 mRNA expression in human A549 cells at 20 uM measured for 1 day bt RT-qPCR analysis; format: functional, cell-based
SMILES,Activity (A549 [1]),Activity (A549 [4]),Activity (A549 [5]),further results
Cc1noc(C)c1CSc1nc2ccccc2[nH]1,Active,inactive,Active,Activity (A549 [2]): Active; inhibition call (active/inactive) [3]: Active; Activity (A549 [6]): Active; Activity (A549 [7]): Active
Cc1noc(C)c1CSc1nc2ccccc2n1C,–,inactive,–,–
c1ccc(-n2c(SCc3nc4ccccc4s3)nc3ccccc32)cc1,–,inactive,–,–
c1ccc2[nH]c(SCc3nc4ccccc4s3)nc2c1,Active,inactive,Active,Activity (A549 [2]): Active; inhibition call (active/inactive) [3]: Active; Activity (A549 [8]): Active; Activity (A549 [6]): Active; Activity (A549 [7]): Active
Cc1ccnc(SCc2nc3ccccc3s2)n1,Active,inactive,–,inhibition [3]: Active
c1ccc(-n2c(SCc3ccccn3)nc3ccccc32)cc1,–,inactive,–,–
Cc1noc(C)c1CSc1nc2ccccc2n1-c1ccccc1,–,inactive,–,Activity (A549 [9]): inactive
Cc1noc(C)c1CSc1nc2cc(Cl)c(Cl)cc2[nH]1,Active,inactive,Active,Activity (A549 [2]): Active; inhibition call (active/inactive) [3]: Active; Activity (A549 [10]): Active; Activity (A549 [6]): Active; Activity (A549 [7]): Active
c1ccc(CSc2nc3ccccc3n2-c2ccccc2)cc1,–,inactive,–,–
N#Cc1ccc(CSc2nc3ccccc3n2-c2ccccc2)cc1,–,inactive,Active,–
COc1ccc(CSc2nc3ccccc3n2-c2ccccc2)cc1,–,inactive,–,–
Cn1c(SCc2nc3ccccc3s2)nc2ccccc21,–,inactive,–,–
Cc1noc(C)c1CSc1nc2ccccc2s1,–,inactive,–,–

# From ChEMBL document CHEMBL5257119, “New insight into the bioactivity of substituted benzimidazole derivatives: Repurposing from anti-HIV activity to cell migration inhibition targeting hnRNP M” (Bioorg Med Chem, 2023)
